According to PubChem BioAssay AID1963825 (Molecular Pharmacology Branch, DTP, NCI, 2024):

Test: Anticancer human tumor 997537-175-T-J1-PDC patient-derived colon adenocarcinoma cell line growth inhibition [POLQ]
Settings: 997537-175-T-J1-PDC complex spheroid viability, combination with POLQ inhibitors; for IC50: curve of first compound; for viability, T/C: stronger effect = lower value
Summary of the method: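 Three-cell-type spheroids modelling solid tumor plus stroma served as the readout system; POL inhibitors were tested individually and in combination, concentration ranges set by clinical Cmax where known.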

[1] = second compound 0.0316 µM, first compound 0.0316 µM
[2] = second compound 0.0316 µM, first compound 0.1 µM
[3] = second compound 0.0316 µM, first compound 0.316 µM
[4] = second compound 0.0316 µM, first compound 1 µM
[5] = second compound 0.1 µM, first compound 0.0316 µM
[6] = second compound 0.1 µM, first compound 0.1 µM
[7] = second compound 0.1 µM, first compound 0.316 µM
[8] = second compound 0.1 µM, first compound 1 µM
[9] = second compound 0.316 µM, first compound 0.0316 µM
[10] = second compound 0.316 µM, first compound 0.1 µM
[11] = second compound 0.316 µM, first compound 0.316 µM
[12] = second compound 0.316 µM, first compound 1 µM
[13] = second compound 1 µM, first compound 0.0316 µM
[14] = second compound 1 µM, first compound 0.1 µM
[15] = second compound 1 µM, first compound 0.316 µM
[16] = second compound 1 µM, first compound 1 µM
[17] = second compound 3.16 µM, first compound 0.0316 µM
[18] = second compound 3.16 µM, first compound 0.1 µM
[19] = second compound 3.16 µM, first compound 0.316 µM
[20] = second compound 3.16 µM, first compound 1 µM
[21] = second compound 10 µM, first compound 0.0316 µM
[22] = second compound 10 µM, first compound 0.1 µM
[23] = second compound 10 µM, first compound 0.316 µM
[24] = second compound 10 µM, first compound 1 µM
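Further: luminescence signal used as a surrogate for viable cells; spheroids exposed to drugs for seven days before readout.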

## CCc1c2c(nc3ccc(O)cc13)-c1cc3c(c(=O)n1C2)COC(=O)[C@]3(O)CC + Cc1cccc(N(C)C(=O)C2C(O)CCN2c2nc(C)cc(C(F)(F)F)c2C#N)c1
Second compound 0.0316 µM
  IC50: 19.7 nM
Second compound 0.1 µM
  IC50: 18.1 nM
Second compound 0.316 µM
  IC50: 21.7 nM
Second compound 1 µM
  IC50: 15.3 nM
Second compound 3.16 µM
  IC50: 17.3 nM
Second compound 10 µM
  IC50: 18.9 nM
Second compound 0.0316 µM, first compound 0.00316 µM
  viability, T/C: 81.5%
Second compound 0.0316 µM, first compound 0.01 µM
  viability, T/C: 68.8%
[1]
  viability, T/C: 36.7%
[2]
  viability, T/C: 13.7%
[3]
  viability, T/C: 5.85%
[4]
  viability, T/C: 4.36%
Second compound 0.1 µM, first compound 0.00316 µM
  viability, T/C: 86.2%
Second compound 0.1 µM, first compound 0.01 µM
  viability, T/C: 70.1%
[5]
  viability, T/C: 30.7%
[6]
  viability, T/C: 11.7%
[7]
  viability, T/C: 6.03%
[8]
  viability, T/C: 4.13%
Second compound 0.316 µM, first compound 0.00316 µM
  viability, T/C: 82.7%
Second compound 0.316 µM, first compound 0.01 µM
  viability, T/C: 77.2%
[9]
  viability, T/C: 35.8%
[10]
  viability, T/C: 15.8%
[11]
  viability, T/C: 5.26%
[12]
  viability, T/C: 5.26%
Second compound 1 µM, first compound 0.00316 µM
  viability, T/C: 79.8%
Second compound 1 µM, first compound 0.01 µM
  viability, T/C: 59.5%
[13]
  viability, T/C: 33.5%
[14]
  viability, T/C: 14.4%
[15]
  viability, T/C: 5.49%
[16]
  viability, T/C: 5.83%
Second compound 3.16 µM, first compound 0.00316 µM
  viability, T/C: 91.5%
Second compound 3.16 µM, first compound 0.01 µM
  viability, T/C: 65.3%
[17]
  viability, T/C: 33%
[18]
  viability, T/C: 14.8%
[19]
  viability, T/C: 6.21%
[20]
  viability, T/C: 5.14%
Second compound 10 µM, first compound 0.00316 µM
  viability, T/C: 81.4%
Second compound 10 µM, first compound 0.01 µM
  viability, T/C: 63%
[21]
  viability, T/C: 39.5%
[22]
  viability, T/C: 18.7%
[23]
  viability, T/C: 5.71%
[24]
  viability, T/C: 7.45%

## O=C(c1cc(Cc2n[nH]c(=O)c3ccccc23)ccc1F)N1CCN(C(=O)C2CC2)CC1 + Cc1cccc(N(C)C(=O)C2C(O)CCN2c2nc(C)cc(C(F)(F)F)c2C#N)c1
Second compound 0.0316 µM
  IC50: > 10000 nM
Second compound 0.1 µM
  IC50: > 10000 nM
Second compound 0.316 µM
  IC50: > 10000 nM
Second compound 1 µM
  IC50: > 10000 nM
Second compound 3.16 µM
  IC50: > 10000 nM
Second compound 10 µM
  IC50: > 10000 nM
[1]
  viability, T/C: 107%
[2]
  viability, T/C: 97.5%
[3]
  viability, T/C: 94.8%
[4]
  viability, T/C: 92.3%
Second compound 0.0316 µM, first compound 3.16 µM
  viability, T/C: 102%
Second compound 0.0316 µM, first compound 10 µM
  viability, T/C: 103%
[5]
  viability, T/C: 91.9%
[6]
  viability, T/C: 108%
[7]
  viability, T/C: 102%
[8]
  viability, T/C: 105%
Second compound 0.1 µM, first compound 3.16 µM
  viability, T/C: 101%
Second compound 0.1 µM, first compound 10 µM
  viability, T/C: 86.2%
[9]
  viability, T/C: 107%
[10]
  viability, T/C: 105%
[11]
  viability, T/C: 109%
[12]
  viability, T/C: 99%
Second compound 0.316 µM, first compound 3.16 µM
  viability, T/C: 118%
Second compound 0.316 µM, first compound 10 µM
  viability, T/C: 110%
[13]
  viability, T/C: 99.1%
[14]
  viability, T/C: 102%
[15]
  viability, T/C: 109%
[16]
  viability, T/C: 97.1%
Second compound 1 µM, first compound 3.16 µM
  viability, T/C: 100%
Second compound 1 µM, first compound 10 µM
  viability, T/C: 87.5%
[17]
  viability, T/C: 101%
[18]
  viability, T/C: 108%
[19]
  viability, T/C: 92.2%
[20]
  viability, T/C: 92.1%
Second compound 3.16 µM, first compound 3.16 µM
  viability, T/C: 97.5%
Second compound 3.16 µM, first compound 10 µM
  viability, T/C: 103%
[21]
  viability, T/C: 99.3%
[22]
  viability, T/C: 87.3%
[23]
  viability, T/C: 91.1%
[24]
  viability, T/C: 97%
Second compound 10 µM, first compound 3.16 µM
  viability, T/C: 87.1%
Second compound 10 µM, first compound 10 µM
  viability, T/C: 96.4%
